Holding throughout (format): cell-based
Assay [1] concerns human A2058 melanoma cells. As to the kind of experiment: LPA1 chemotaxis assay. As to conditions: 100 nM LPA, read-out: inhibition of LPA-driven chemotaxis IC50. The method, then: Chemotaxis of the A2058 human melanoma cells was measured using the Neuroprobe ChemoTx® System plates (8 μM pore size, 5.7 mm diameter sites). The filter sites were coated with 0.001% fibronectin (Sigma) in 20 mM Hepes, pH 7.4 and allowed to dry. A2058 cells were serum-starved for 24 hours, then harvested with Cell Stripper and resuspended in DMEM containing 0.1% fatty-acid-free bovine serum albumin (BSA) to a concentration of 1×10^6/ml. Cells were mixed with an equal volume of test compound (2×) in DMEM containing 0.1% fatty-acid-free BSA and incubated at 37° C. for 15 minutes. LPA (100 nM in DMEM containing 0.1% fatty-acid-free BSA) or vehicle was added to each well of the lower chamber and 50 μl of the cell suspension/test compound mix was applied to the upper portion of the ChemoTx plate. Plates were incubated at 37° C. for three hours and then the cells removed from the upper portion by rinsing with PBS and scraping. The filter was dried then stained with HEMA 3 Staining System (Fisher Scientific). The absorbance of the filter was read at 590 nm and IC50s were determined using Symyx Assay Explorer.

Another assay addresses T1, Human LPA1 (Homo sapiens, UniProt Q92633).
T1 construct: the full-length cDNA for human LPA1 was obtained by PCR of the reverse transcription reaction; expressed in transfected cells
Put plainly: LPA1 calcium flux assay. Conditions: CHO cells expressing human LPA1, 10 nM LPA; read-out: HLPA1 Ca Flux IC50. The method, then:
A 1.1 kb cDNA encoding the human LPA1 receptor was cloned from human lung. Human lung RNA (Clontech Laboratories, Inc. USA) was reverse transcribed using the RETROscript kit (Ambion, Inc.) and the full-length cDNA for human LPA1 was obtained by PCR of the reverse transcription reaction. The nucleotide sequence of the cloned human LPA1 was determined by sequencing and confirmed to be identical to the published human LPA1 sequence (An et al. Biochem. Biophys. Res. Commun. 231:619 (1997). The cDNA was cloned into the pcDNA5/FRT expression plasmid and transfected in CHO cells using lipofectamine 2000 (Invitrogen Corp., USA). Clones stably expressing human LPA1 were selected using hygromycin and identified as cells that show Ca-influx in response to LPA.
(§1) Human LPA1 or LPA3 expressing CHO cells are seeded at 20,000-45,000 cells per well in a 96-well poly-D-lysine coated plate one or two days before the assay. Prior to the assay, the cells are washed once with PBS and then cultured in serum-free media overnight. On the day of the assay, a calcium indicator dye (Calcium 4, Molecular Devices) in assay buffer (HBSS with Ca^2+and Mg^2+ and containing 20 mM Hepes and 0.3% fatty-acid free human serum albumin) is added to each well and incubation continued for 1 hour at 37° C. 10 μl of test compounds in 2.5% DMSO are added to the cells and incubation continued at room temperature for 30 minutes. Cells are the stimulated by the addition of 10 nM LPA and intracellular Ca^2+ measured using the Flexstation 3 (Molecular Devices). IC50s are determined using Graphpad prism analysis of drug titration curves.

The next assay has as its target T2, Human LPA3 (Homo sapiens, UniProt Q9UBY5).
T2 construct: The full-length cDNA fragment for human LPA3 was obtained by PCR from the vector; expressed in transfected cells; cDNA from the Missouri S&T cDNA Resource Center
T2 sequence (Q9UBY5 1-353): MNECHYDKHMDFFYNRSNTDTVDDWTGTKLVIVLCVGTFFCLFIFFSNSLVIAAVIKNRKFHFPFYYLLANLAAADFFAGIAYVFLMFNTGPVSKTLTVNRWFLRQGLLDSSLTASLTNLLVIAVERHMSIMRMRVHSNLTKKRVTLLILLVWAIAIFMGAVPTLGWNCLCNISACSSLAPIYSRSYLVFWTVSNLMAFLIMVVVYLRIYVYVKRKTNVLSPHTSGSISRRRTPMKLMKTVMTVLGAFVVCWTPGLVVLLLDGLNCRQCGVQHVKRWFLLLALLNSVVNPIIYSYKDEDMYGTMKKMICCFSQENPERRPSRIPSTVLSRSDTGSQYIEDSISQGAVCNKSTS
As to the kind of experiment: LPA3 calcium flux assay. Conditions: CHO cells expressing human LPA3, 10 nM LPA; read-out: HLPA3 Ca Flux IC50. The method, then: A vector containing the human LPA3 receptor cDNA was obtained from the Missouri S&T cDNA Resource Center (www.cdna.org). The full-length cDNA fragment for human LPA3 was obtained by PCR from the vector. The nucleotide sequence of the cloned human LPA3 was determined by sequencing and confirmed to be identical to the published human LPA3 sequence (NCBI accession number NM_012152). The cDNA was cloned into the pcDNA5/FRT expression plasmid and transfected in CHO cells using lipofectamine 2000 (Invitrogen Corp., USA). Clones stably expressing human LPA3 were selected using hygromycin and identified as cells that show Ca-influx in response to LPA.
as §1
Background: Calcium assays in cells follow changes in intracellular calcium, usually with a dye or a luminescent sensor.

For orientation: IC50 means the midpoint of a concentration-inhibition curve.

SMILES strings stand for the structures.

T1 sequence (Q92633 whole entry): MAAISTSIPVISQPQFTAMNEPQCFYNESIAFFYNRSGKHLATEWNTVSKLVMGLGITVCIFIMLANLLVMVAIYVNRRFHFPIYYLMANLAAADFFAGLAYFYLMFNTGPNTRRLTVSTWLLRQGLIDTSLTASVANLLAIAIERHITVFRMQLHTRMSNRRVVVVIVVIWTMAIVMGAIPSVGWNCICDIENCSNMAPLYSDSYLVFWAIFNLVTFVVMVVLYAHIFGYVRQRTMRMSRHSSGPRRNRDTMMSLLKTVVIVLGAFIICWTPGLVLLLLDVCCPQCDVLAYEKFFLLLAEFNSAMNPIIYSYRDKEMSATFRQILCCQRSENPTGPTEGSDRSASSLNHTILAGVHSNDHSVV

Take `Cc1noc(-c2ccc(-c3ccc(C4(C(=O)O)CC4)cc3)cc2)c1NC(=O)OCc1ccccc1` [Compound 4, 1-[4′-(4-Benzyloxycarbonylamino-3-methyl-isoxazol-5-yl)-biphenyl-4-yl]-cyclopropanecarboxylic acid]: the figures for the 50% inhibitory concentration (IC50) (in assay [1]; at Human LPA1; at Human LPA3) were < 100 nM, < 300 nM and > 10000 nM, respectively.

Turning to `CCc1noc(-c2ccc(-c3ccc(C4(C(=O)O)CC4)cc3)cc2)c1NC(=O)O[C@H](C)c1ccccc1` [Compound 29, 1-{4′-[3-Ethyl-4-((R)-1-phenyl-ethoxycarbonylamino)-isoxazol-5-yl]-biphenyl-4-yl}-cyclopropanecarboxylic acid], the IC50 in assay [1] is < 100 nM; at Human LPA1 it was < 300 nM; on Human LPA3, 300 to 1000 nM.

As for `Cc1noc(-c2ccc(-c3ccc(C4(C(=O)NS(C)(=O)=O)CC4)cc3)cc2)c1NC(=O)O[C@H](C)c1ccccc1` [Compound 35, {5-[4′-(1-Methanesulfonylaminocarbonyl-cyclopropyl)-biphenyl-4-yl]-3-methyl-isoxazol-4-yl}-carbamic acid (R)-1-phenyl-ethyl ester], the IC50 is < 100 nM in assay [1], < 300 nM at Human LPA1 and 1000 to 10000 nM on Human LPA3.

Take `Cc1ccc([C@@H](C)OC(=O)Nc2c(C)noc2-c2ccc(-c3ccc(C4(C(=O)O)CC4)cc3)cc2)cc1` [Compound 16, 1-{4′-[3-Methyl-4-((R)-1-p-tolyl-ethoxycarbonylamino)-isoxazol-5-yl]-biphenyl-4-yl}-cyclopropanecarboxylic acid]: the IC50 was < 100 nM in assay [1], < 300 nM at Human LPA1 and 1000 to 10000 nM on Human LPA3.

As for `Cc1noc(-c2ccc(-c3ccc(C4(c5nc(=O)o[nH]5)CC4)cc3)cc2)c1NC(=O)O[C@H](C)c1ccccc1` [Compound 38, (3-Methyl-5-{4′-[1-(5-oxo-2,5-dihydro-[1,2,4]oxadiazol-3-yl)-cyclopropyl]-biphenyl-4-yl}-isoxazol-4-yl)-carbamic acid (R)-1-phenyl-ethyl ester], the IC50 in assay [1] was < 100 nM; on Human LPA1, < 300 nM; at Human LPA3, 1000 to 10000 nM.

Regarding `Cc1noc(-c2ccc(-c3ccc(C4(C(=O)O)CC4)cc3)cc2)c1NC(=O)OC(C)C1=C(Cl)CCCC1` (stereo not drawn) [Compound 21, 1-(4′-{4-[1-(2-Chloro-cyclohex-1-enyl)-ethoxycarbonylamino]-3-methyl-isoxazol-5-yl}-biphenyl-4-yl)-cyclopropanecarboxylic acid], the results for the IC50 (in assay [1]; at Human LPA1; on Human LPA3) were < 100 nM, < 300 nM and < 300 nM, respectively.

Turning to `C[C@@H](OC(=O)Nc1cnoc1-c1ccc(-c2ccc(C3(C(=O)O)CC3)cc2)cc1)c1ccccc1` [Compound 33, 1-{4′-[4-((R)-1-Phenyl-ethoxycarbonylamino)-isoxazol-5-yl]-biphenyl-4-yl}-cyclopropanecarboxylic acid], the figures for the IC50 on Human LPA1 and at Human LPA3 were < 300 nM and 1000 to 10000 nM, respectively.

For `COc1cccc([C@@H](C)OC(=O)Nc2c(C)noc2-c2ccc(-c3ccc(C4(C(=O)O)CC4)cc3)cc2)c1` [Compound 23, 1-(4′-{4-[(R)-1-(3-Methoxy-phenyl)-ethoxycarbonylamino]-3-methyl-isoxazol-5-yl}-biphenyl-4-yl)-cyclopropanecarboxylic acid], the IC50 on Human LPA1 is < 300 nM; on Human LPA3, 1000 to 10000 nM.

As for `Cc1noc(-c2ccc(-c3ccc(C4(C(=O)O)CC4)cc3)cc2)c1NC(=O)O[C@H](C)C1CCC1` [Compound 20, 1-{4′-[4-((R)-1-Cyclobutyl-ethoxycarbonylamino)-3-methyl-isoxazol-5-yl]-biphenyl-4-yl}-cyclopropanecarboxylic acid], the IC50 was < 300 nM at Human LPA1 and 1000 to 10000 nM at Human LPA3.

For the compound `Cc1cccc([C@@H](C)OC(=O)Nc2c(C)noc2-c2ccc(-c3ccc(C4(C(=O)O)CC4)cc3)cc2)c1` [Compound 17, 1-{4′-[3-Methyl-4-((R)-1-m-tolyl-ethoxycarbonylamino)-isoxazol-5-yl]-biphenyl-4-yl}-cyclopropanecarboxylic acid], the IC50 in assay [1] is < 100 nM; on Human LPA1, < 300 nM; at Human LPA3 it was 300 to 1000 nM.

Consider `Cc1ccccc1[C@@H](C)OC(=O)Nc1c(C)noc1-c1ccc(-c2ccc(C3(C(=O)O)CC3)cc2)cc1` [Compound 3, 1-{4′-[3-Methyl-4-((R)-1-o-tolyl-ethoxycarbonylamino)-isoxazol-5-yl]-biphenyl-4-yl}-cyclopropanecarboxylic acid], for which the half-inhibitory concentration (IC50) was < 300 nM at Human LPA1 and 300 to 1000 nM at Human LPA3.

In the case of `Cc1noc(-c2ccc(-c3ccc(C4(C(=O)O)CC4)cc3)cc2)c1NC(=O)O[C@H](C)c1ccccc1C#N` [Compound 19, 1-(4′-{4-[(R)-1-(2-Cyano-phenyl)-ethoxycarbonylamino]-3-methyl-isoxazol-5-yl}-biphenyl-4-yl)-cyclopropanecarboxylic acid], the concentration for half-maximal inhibition (IC50) in assay [1] is < 100 nM; on Human LPA1, < 300 nM; on Human LPA3 it was 1000 to 10000 nM.

Consider `COc1cc(-c2ccc(C3(C(=O)NS(C)(=O)=O)CC3)cc2)ccc1-c1onc(C)c1NC(=O)O[C@H](C)c1cccc(C(F)(F)F)c1` [Compound 41, {5-[4′-(1-Methanesulfonylaminocarbonyl-cyclopropyl)-3-methoxy-biphenyl-4-yl]-3-methyl-isoxazol-4-yl}-carbamic acid (R)-1-(3-trifluoromethyl-phenyl)-ethyl ester], for which the half-maximal inhibitory concentration (IC50) on Human LPA1 is < 300 nM; at Human LPA3 it was 300 to 1000 nM.

`Cc1noc(-c2ccc(-c3ccc(C4(C(=O)O)CC4)cc3)cc2)c1NC(=O)O[C@H](C)c1ccccc1C(F)(F)F` [Compound 9, 1-(4′-{3-Methyl-4-[(R)-1-(2-trifluoromethyl-phenyl)-ethoxycarbonylamino]-isoxazol-5-yl}-biphenyl-4-yl)-cyclopropanecarboxylic acid]: the figures for the IC50 at Human LPA1 and at Human LPA3 were < 300 nM and 1000 to 10000 nM, respectively.

On to `Cc1noc(-c2ccc(-c3ccc(C4(C(=O)O)CC4)cc3)cc2)c1NC(=O)O[C@@H](C)c1ccccc1` [Compound 27, 1-{4′-[3-Methyl-4-((S)-1-phenyl-ethoxycarbonylamino)-isoxazol-5-yl]-biphenyl-4-yl}-cyclopropanecarboxylic acid], for which the IC50 at Human LPA1 is < 300 nM; on Human LPA3, > 10000 nM.

In the case of `Cc1noc(-c2ccc(-c3ccc(C4(C(=O)O)CC4)cc3)cc2)c1NC(=O)O[C@H](C)C1CC1` (single isomer, unassigned) [Compound 6], the values for the IC50 on Human LPA1 and at Human LPA3 were < 300 nM and > 10000 nM, respectively.

`Cc1noc(-c2ccc(-c3ccc(C4(C(=O)O)CC4)cc3)cc2)c1NC(=O)OC(C)c1ccccc1` (racemic) [Compound 34, 1-{4′-[3-Methyl-4-(1-phenyl-ethoxycarbonylamino)-isoxazol-5-yl]-biphenyl-4-yl}-cyclopropanecarboxylic acid]: the concentration for half-maximal inhibition (IC50) is < 300 nM on Human LPA1 and 1000 to 10000 nM at Human LPA3.

The values above are taken from patent publication US8273780B2, “Polycyclic antagonists of lysophosphatidic acid receptors” (Amira Pharmaceuticals, Inc., priority 2009, dated 2012).
